From paper PMC12620000, “Exploring the feasibility of protein phosphatase 1–docking motif-mimetic cell-penetrating peptides for modulating prostate carcinogenesis” (JNCI Cancer Spectrum, 2025)
Read-outs that look alike come from different tables or passages of the source. Where no end group is shown, it is not given here.

What was measured:
PC3 cells = format: cell-based; conditions: 24 h
Description: (§1) One mM peptide stocks were prepared as for fluorescent versions. Cells were grown to 60%-70% confluence in 96-well plates and treated with 1-20 μM peptides in RPMI-1640 (phenol red-free). After 24 or 48 hours at 37 °C, 5% CO2, PrestoBlue (1/10 dilution) was added for 30 minutes. Fluorescence (λAbs 560 nm/λEm 600 nm) was measured using an Infinite 200 PRO reader (Tecan). Each condition had 3-5 replicates, repeated in 3 independent experiments.
(§2) Figure 3. Synergistic reduction of prostate cancer cell viability by combined AR-BS peptides. […] B) Cells were treated with combinations of AR-BS peptides (5 or 10 μM of each peptide) for 24 hours to assess potential synergistic effects. Cell viability was evaluated using the PrestoBlue Cell Viability Reagent according to the manufacturer’s instructions. Percentage cell viability was calculated as the ratio between treatment and control conditions (cells without treatment). Results are expressed as mean (SD) percentage from 3 independent experiments with 5 replicates per condition. Statistical comparisons were performed using the Mann–Whitney U test. *P < .05. Abbreviations: AR-BS = androgen receptor–binding site; mitP = mitoparan.
(§3) Percentage cell viability was calculated from the ratio between treatment condition and control condition (cells with no treatment). Results are expressed as mean ± SD from three independent experiments with five replicates per condition.

LNCaP cells = format: cell-based; conditions: 24 h
Description: as §1, §2, §3

| Substance | Cell viability, Mean (PC3 cells; 5 μM) [%] | Cell viability, Mean (PC3 cells; 10 μM) [%] | Cell viability, Mean (PC3 cells; 20 μM) [%] | Cell viability, Mean (LNCaP cells; 5 μM) [%] | Cell viability, Mean (LNCaP cells; 10 μM) [%] | Cell viability, Mean (LNCaP cells; 20 μM) [%] |
| --- | --- | --- | --- | --- | --- | --- |
| GSCKVFFKRAAKGKQK-NH2 [AR-BS1] | 89 | 89 | 81 | 97 | 96 | 94 |
| KVKPIYFHTGRKKRRQRRRPPQ-NH2 [AR-BS3] | 79 | 88 | 84 | 91 | 94 | 99 |
| RQLVHVVKWAKKL-NH2 [AR-BS2] | 93 | 87 | 81 | 95 | 96 | 83 |
